According to patent US20260248872A1, “WITHANIA SOMNIFERA COMPOSITION FOR IMPROVING MEMORY AND COGNITION” (ARJUNA NATURAL PRIVATE LIMITED, priority 2023, published 2026):

Experiments:
Format in all cases: in vivo, rat
male SD rats [1] = assay: Cooks pole climbing test, conditioned avoidance, scopolamine-induced amnesia; settings: scopolamine 0.6 mg/kg i.p., Ashwagandha extract 100 mg/kg, Piracetam 200 mg/kg, Mean ± SEM (n = 6)
Procedure: (§1) Twenty-four male SD rats were divided into four groups comprising of 6 rats in each group. The animals were treated as per the following details: • Group 1: Normal control (0.5% Polysorbate 80; 10 ml/kg) • Group 2: Untreated control (Scopolamine; 0.6 mg/kg i.p.) • Group 3: Piracetam—200 mg/kg+Scopolamine 0.6 mg/kg i.p. • Group 4: Ashwagandha extract (Sample 4)—100 mg/kg+Scopolamine 0.6 mg/kg i.p.
(§2) The vehicle/extract/standard was administered daily for 10 consecutive days. Habituation to swimming was conducted on day 6 of the experiment. Scopolamine was injected 30 minutes after the vehicle/extract/standard to the designated groups. The following behavioural test was conducted at the end of the treatment by using Elevated plus maze apparatus, Y maze model and Cooks pole climbing method.
Pole climbing test: Rats were trained in such a way that the animal had to climb the pole (shock free zone) within 30 s to avoid a shock. The shock was preceded by a buzzer that lasted for 15 s. The animals were trained to climb the pole at the sound of the buzzer (conditioned avoidance response). At particular intervals, 20 trials were given for each animal and average of the shock avoidance and mistakes were recorded. Trained animals were assayed by conditioned avoidance responses.

male SD rats [2] = assay: Morris Water Maze (MWM), scopolamine-induced amnesia; settings: scopolamine 0.6 mg/kg i.p., Ashwagandha extract 100 mg/kg, Piracetam 200 mg/kg, mean
Procedure: as §1, §2
The MWM consists of a circular pool (180 cm in diameter and 60 cm in height) with a featureless inner surface. The circular pool was filled with water (23±1° C.) up to a height of 40 cm. The pool was divided into four quadrants of equal area. The escape platform was centered in one of the four quadrants. The day before the training experiments (day 6), animals were habituated to swim training for 60 s in the absence of the platform. The animals were treated with vehicle/extract/standard drug for 6 days. On day 7, 30 min after the administration of vehicle/extract/standard drug, scopolamine (0.6 mg/kg, i.p.) was injected. Training session was started 30 min after scopolamine administration. The rats were given four trial sessions each day for four consecutive days (day 7-10), with an inter-trial interval of 15 min, and the escape latencies were recorded. Once the rat located the platform, it was permitted to remain on it for 15 s to observe the vital clues. […] On day 11, the probe test was performed by removing the platform from the pool and a cut-off time of 60 s was kept for exploring. The time spent by the animal in the target quadrant was recorded. The higher value of the time spent in quadrant indicate better retention ability as the animal remembered the position of the platform.

male SD rats [3] = assay: Y-Maze model, scopolamine-induced amnesia; settings: scopolamine 0.6 mg/kg i.p., Ashwagandha extract 100 mg/kg, Piracetam 200 mg/kg, Mean ± SEM (n = 6)
Procedure: as §1, §2
Y-Maze model—The treatment was started (as per the groups mentioned) for animals from the day 1 and continues up to day 8. […] Briefly, each time animals were placed just inside arm B facing away from the center and allowed to move through apparatus for 8 min, while being monitored by tracking system. […] Each arm entry (defined as all four paws entering arm) was scored and recorded. Animals were returned to home cage and numbers of fecal pellets were counted in the Y maze and data was recorded. […]

male SD rats [4] = assay: Elevated plus maze, transfer latency, scopolamine-induced amnesia; settings: scopolamine 0.6 mg/kg i.p., Ashwagandha extract 100 mg/kg, Piracetam 200 mg/kg, 10 days, Mean ± SEM (n = 6)
Procedure: as §1, §2
The elevated plus-maze consists of two open arms and two closed arms (50×10×40 cm each) were elevated to a height of 50 cm. The rats were placed individually at the end of an open arm facing away from the central platform, and the time taken by them to move from there to either of the close arm transfer latency was recorded. […] The rats were allowed to explore the maze for another 10 seconds and then return to the home cage. […] On the 10th day Standard and test substances were administered orally 30 mins before scopolamine injection transfer latency was recorded.

Compound: NC(=O)CN1CCCC1=O [Piracetam]
- Avoidance/Escape latency (male SD rats [1]): 6.00 ± 0.89 s
- Time to reach escape platform on training days (male SD rats [2]; MWM Day 7): 74.25 s
- Time to reach escape platform on training days (male SD rats [2]; MWM Day 8): 47.33 s
- Time to reach escape platform on training days (male SD rats [2]; MWM Day 9): 9.83 s
- Time to reach escape platform on training days (male SD rats [2]; MWM Day 10): 5.25 s
- Number of Arm entries (male SD rats [3]): 5.00 ± 0.89
- Retention Latency (male SD rats [3]): 2.07 ± 0.46 min
- Transfer Latency (male SD rats [4]): 7.00 ± 0.89 s
